Patent publication US20260116868A1 (Arcus Biosciences, Inc., priority 2023, published 2026)

How the values were obtained:
[1] = target: T1, Cbl-b (Homo sapiens, UniProt Q13191); test: Cbl-b probe displacement HTRF binding assay; conditions: 0.4 nM Cbl-b, 150 nM BODIPY probe
T1 construct: biotin (biotinylated protein)
Method in brief: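 Compound competes with BODIPY probe (150 nM) for biotinylated Cbl-b (0.4 nM) in HEPES/NaCl/Triton/TCEP/BSA buffer; 60 min preincubation, 15 min with probe, room temperature. Tb-streptavidin HTRF read; % displacement vs DMSO and no-protein controls, IC50 from four-parameter fit.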

[2] = system: Jurkat cells; test: IL-2 secretion assay in Jurkat cells activated with CD3/CD28 T Cell Activator; type: cell-based; conditions: Homo sapiens; Jurkat cells, CD3/CD28 T Cell Activator, 24 h, IL-2 AlphaLISA; read-out: IL-2 Secretion (EC50)
Procedure: Certain compounds were also evaluated in an IL-2 secretion assay. On the day of the assay, a 16 point, 1:2 master serial dilution of each compound was prepared in Opti-MEM to span a final concentration range of 10 μM to 300 pM. Assays were set up in CORNING® tissue culture-treated 384-well microplates containing 60 nL of each dilution. Jurkat cells grown in RPMI-1640 supplemented with 10% FBS, 1% Glutamax, and 1% Pen/Strep were collected, resuspended in Opti-MEM. 50,000 cells/well and added to the compound plates. After a short spin (1200 rpm for 1 min), the plates were incubated at 37° C. for 1 hour. The cells were activated by adding 15 μL of IMMUNOCULT™ Human CD3/CD28 T Cell Activator (STEMCELL Technologies) diluted in Opti-MEM. After 24 h of incubation at 37° C., aliquots of culture supernatants were transferred to OptiPlate-384 (PerkinElmer) microplates. The level of IL-2 secretion in the supernatants was then determined using the IL-2 (human) AlphaLISA Detection Kit (PerkinElmer) according to the manufacturer's recommendations. The AlphaLISA signal was measured using an EnVision plate reader (PerkinElmer). EC50 values were determined by fitting the data to a standard 4-parameter logistic equation. See Table 7 for data for select compounds (IL-2 Secretion (EC50)).

T1 sequence (Q13191 whole entry, species assumed): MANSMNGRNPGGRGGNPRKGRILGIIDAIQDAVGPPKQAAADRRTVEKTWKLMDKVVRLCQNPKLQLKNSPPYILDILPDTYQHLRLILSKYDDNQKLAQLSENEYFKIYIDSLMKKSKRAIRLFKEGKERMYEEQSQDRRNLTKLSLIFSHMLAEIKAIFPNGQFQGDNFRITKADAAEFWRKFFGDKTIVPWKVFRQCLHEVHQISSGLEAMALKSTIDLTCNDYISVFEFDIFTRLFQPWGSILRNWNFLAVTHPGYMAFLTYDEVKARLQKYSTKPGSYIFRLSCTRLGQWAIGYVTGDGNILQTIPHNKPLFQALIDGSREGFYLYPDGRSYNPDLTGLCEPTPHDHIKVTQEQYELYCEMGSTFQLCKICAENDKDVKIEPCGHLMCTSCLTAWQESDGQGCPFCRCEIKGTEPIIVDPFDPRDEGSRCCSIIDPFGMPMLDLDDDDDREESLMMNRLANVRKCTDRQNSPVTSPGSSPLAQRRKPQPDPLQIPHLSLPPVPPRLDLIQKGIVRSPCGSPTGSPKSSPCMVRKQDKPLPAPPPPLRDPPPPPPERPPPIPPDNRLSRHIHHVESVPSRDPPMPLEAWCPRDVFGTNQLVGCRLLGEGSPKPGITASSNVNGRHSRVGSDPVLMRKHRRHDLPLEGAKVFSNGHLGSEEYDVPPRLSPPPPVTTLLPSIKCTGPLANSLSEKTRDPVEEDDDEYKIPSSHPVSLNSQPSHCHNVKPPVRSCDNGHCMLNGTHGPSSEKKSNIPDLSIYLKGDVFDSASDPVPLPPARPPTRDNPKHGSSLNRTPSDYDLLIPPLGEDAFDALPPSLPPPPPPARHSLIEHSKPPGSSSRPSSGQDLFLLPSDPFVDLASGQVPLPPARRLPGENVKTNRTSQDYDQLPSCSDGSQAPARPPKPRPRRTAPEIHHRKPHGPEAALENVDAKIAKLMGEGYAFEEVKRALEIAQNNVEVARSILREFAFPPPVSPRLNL

Row | Structure (SMILES) | IC50 [1] [nM] | EC50 [2] [nM]
1 | COCCNCc1cc(C(=O)Nc2cc(-c3ccc(C#N)cc3-c3nncn3C)cc(C3CC3)n2)c(=O)n(C2CC2)c1 [Example 3, N-[4-[4-cyano-2-(4-methyl-1,2,4-triazol-3-yl)phenyl]-6-cyclopropylpyridin-2-yl]-1-cyclopropyl-5-[(2-methoxyethylamino)methyl]-2-oxopyridine-3-carboxamide] | < 100 | < 100
2 | COCCNCc1cc(C(=O)Nc2cc(-c3ccc(F)cc3-c3nncn3C)cc(C3CC3)n2)c(=O)n(C2CC2)c1 [Example 4, 1-cyclopropyl-N-[6-cyclopropyl-4-[4-fluoro-2-(4-methyl-1,2,4-triazol-3-yl)phenyl]pyridin-2-yl]-5-[(2-methoxyethylamino)methyl]-2-oxopyridine-3-carboxamide] | < 100 | < 100
3 | CCOc1cc(-c2ccc(F)cc2-c2nncn2C)cc(NC(=O)c2cc(CNCCOC)cn(C3CC3)c2=O)n1 [Example 5, 1-cyclopropyl-N-[6-ethoxy-4-[4-fluoro-2-(4-methyl-1,2,4-triazol-3-yl)phenyl]pyridin-2-yl]-5-[(2-methoxyethylamino)methyl]-2-oxopyridine-3-carboxamide] | < 100 | < 100
4 | COCCN(C)Cc1cc(C(=O)Nc2cc(-c3ccc(F)cc3-c3nncn3C)cc(C3CC3)n2)c(=O)n(C2CC2)c1 [Example 6, N-{6-cyclopropyl-4-[4-fluoro-2-(4-methyl-4H-1,2,4-triazol-3-yl)phenyl]-2-pyridyl}-1-cyclopropyl-5-{[(2-methoxyethyl)-N-methylamino]methyl}-2-oxo-1,2-dihydronicotinamide] | < 100 | 1000 to 5000
5 | C[C@H]1CCCN(Cc2cc(C(=O)Nc3cc(-c4ccc(C#N)cc4-c4nncn4C(F)F)cc(C4CC4)n3)c(=O)n(C3CC3)c2)C1 [Example 7, N-(4-{4-cyano-2-[4-(difluoromethyl)-4H-1,2,4-triazol-3-yl]phenyl}-6-cyclopropyl-2-pyridyl)-5-{[(S)-3-methyl-1-piperidyl]methyl}-1-cyclopropyl-2-oxo-1,2-dihydronicotinamide] | < 100 | < 100
6 | C[C@H]1CCCN(Cc2cc(C(=O)Nc3cc(-c4ccc(C#N)cc4-c4nncn4C(F)F)cc(N)n3)c(=O)n(C3CC3)c2)C1 [Example 8, N-(6-amino-4-{4-cyano-2-[4-(difluoromethyl)-4H-1,2,4-triazol-3-yl]phenyl}-2-pyridyl)-5-{[(S)-3-methyl-1-piperidyl]methyl}-1-cyclopropyl-2-oxo-1,2-dihydronicotinamide] | < 100 | 100 to 1000
7 | N#Cc1ccc(-c2cc(NC(=O)c3cc(CNCCOC(F)(F)F)cn(C4CC4)c3=O)nc(C3CC3)c2)c(-c2nncn2C(F)F)c1 [Example 9, N-(4-{4-cyano-2-[4-(difluoromethyl)-4H-1,2,4-triazol-3-yl]phenyl}-6-cyclopropyl-2-pyridyl)-1-cyclopropyl-2-oxo-5-[(2-trifluoromethoxyethylamino)methyl]-1,2-dihydronicotinamide] | < 100 | < 100
8 | CC1(NCc2cc(C(=O)Nc3cc(-c4ccc(C#N)cc4-c4nncn4C(F)F)cc(C4CC4)n3)c(=O)n(C3CC3)c2)CCC1 [Example 10, N-(4-{4-cyano-2-[4-(difluoromethyl)-4H-1,2,4-triazol-3-yl]phenyl}-6-cyclopropyl-2-pyridyl)-1-cyclopropyl-5-[(1-methylcyclobutylamino)methyl]-2-oxo-1,2-dihydronicotinamide] | < 100 | < 100
9 | N#Cc1ccc(-c2cc(NC(=O)c3cc(CN4C[C@H]5CC[C@@H]4C5)cn(C4CC4)c3=O)nc(C3CC3)c2)c(-c2nncn2C(F)F)c1 [Example 11, N-(4-{4-cyano-2-[4-(difluoromethyl)-4H-1,2,4-triazol-3-yl]phenyl}-6-cyclopropyl-2-pyridyl)-5-({(1R,4S)-2-azabicyclo[2.2.1]hept-2-yl}methyl)-1-cyclopropyl-2-oxo-1,2-dihydronicotinamide] | < 100 | 100 to 1000
10 | COCC1(NCc2cc(C(=O)Nc3cc(-c4ccc(C#N)cc4-c4nncn4C(F)F)cc(C4CC4)n3)c(=O)n(C3CC3)c2)CCC1 [Example 12, N-(4-{4-cyano-2-[4-(difluoromethyl)-4H-1,2,4-triazol-3-yl]phenyl}-6-cyclopropyl-2-pyridyl)-1-cyclopropyl-5-{[1-(methoxymethyl)cyclobutylamino]methyl}-2-oxo-1,2-dihydronicotinamide] | < 100 | 100 to 1000
11 | COCCNCc1cc(C(=O)Nc2cc(-c3ccc(C#N)cc3-c3nncn3C(F)F)cc(C3CC3)n2)c(=O)n(C2CC2)c1 [Example 14, N-(4-{4-cyano-2-[4-(difluoromethyl)-4H-1,2,4-triazol-3-yl]phenyl}-6-cyclopropyl-2-pyridyl)-1-cyclopropyl-5-[(2-methoxyethylamino)methyl]-2-oxo-1,2-dihydronicotinamide] | < 100 | < 100
12 | Cn1cnnc1-c1cc(F)ccc1-c1cc(NC(=O)c2cc(CNCCC(F)(F)F)cn(C3CC3)c2=O)nc(C2CC2)c1 [Example 15, N-{6-cyclopropyl-4-[4-fluoro-2-(4-methyl-4H-1,2,4-triazol-3-yl)phenyl]-2-pyridyl}-1-cyclopropyl-2-oxo-5-[(3,3,3-trifluoropropylamino)methyl]-1,2-dihydronicotinamide] | < 100 | < 100
13 | CO[C@H]1CCN(Cc2cc(C(=O)Nc3cc(-c4ccc(F)cc4-c4nncn4C)cc(C4CC4)n3)c(=O)n(C3CC3)c2)C1 [Example 16, N-{6-cyclopropyl-4-[4-fluoro-2-(4-methyl-4H-1,2,4-triazol-3-yl)phenyl]-2-pyridyl}-5-{[(S)-3-methoxy-1-pyrrolidinyl]methyl}-1-cyclopropyl-2-oxo-1,2-dihydronicotinamide] | < 100 | 100 to 1000
14 | CO[C@@H](C)CNCc1cc(C(=O)Nc2cc(-c3ccc(F)cc3-c3nncn3C)cc(C3CC3)n2)c(=O)n(C2CC2)c1 [Example 17, N-{6-cyclopropyl-4-[4-fluoro-2-(4-methyl-4H-1,2,4-triazol-3-yl)phenyl]-2-pyridyl}-5-{[(S)-2-methoxypropylamino]methyl}-1-cyclopropyl-2-oxo-1,2-dihydronicotinamide] | < 100 | < 100
15 | COC[C@H](C)NCc1cc(C(=O)Nc2cc(-c3ccc(F)cc3-c3nncn3C)cc(C3CC3)n2)c(=O)n(C2CC2)c1 [Example 18, N-{6-cyclopropyl-4-[4-fluoro-2-(4-methyl-4H-1,2,4-triazol-3-yl)phenyl]-2-pyridyl}-5-{[(S)-2-methoxy-1-methylethylamino]methyl}-1-cyclopropyl-2-oxo-1,2-dihydronicotinamide] | < 100 | < 100
16 | COC(F)(F)CNCc1cc(C(=O)Nc2cc(-c3ccc(F)cc3-c3nncn3C)cc(C3CC3)n2)c(=O)n(C2CC2)c1 [Example 19, N-{6-cyclopropyl-4-[4-fluoro-2-(4-methyl-4H-1,2,4-triazol-3-yl)phenyl]-2-pyridyl}-1-cyclopropyl-5-[(2,2-difluoro-2-methoxyethylamino)methyl]-2-oxo-1,2-dihydronicotinamide] | < 100 | 100 to 1000
17 | CO[C@H](C)CNCc1cc(C(=O)Nc2cc(-c3ccc(F)cc3-c3nncn3C)cc(C3CC3)n2)c(=O)n(C2CC2)c1 [Example 20, N-{6-cyclopropyl-4-[4-fluoro-2-(4-methyl-4H-1,2,4-triazol-3-yl)phenyl]-2-pyridyl}-5-{[(R)-2-methoxypropylamino]methyl}-1-cyclopropyl-2-oxo-1,2-dihydronicotinamide] | < 100 | < 100
18 | COC[C@@H](C)NCc1cc(C(=O)Nc2cc(-c3ccc(F)cc3-c3nncn3C)cc(C3CC3)n2)c(=O)n(C2CC2)c1 [Example 21, N-{6-cyclopropyl-4-[4-fluoro-2-(4-methyl-4H-1,2,4-triazol-3-yl)phenyl]-2-pyridyl}-5-{[(R)-2-methoxy-1-methylethylamino]methyl}-1-cyclopropyl-2-oxo-1,2-dihydronicotinamide] | < 100 | < 100
19 | CO[C@@H]1CCN(Cc2cc(C(=O)Nc3cc(-c4ccc(F)cc4-c4nncn4C)cc(C4CC4)n3)c(=O)n(C3CC3)c2)C1 [Example 22, N-{6-cyclopropyl-4-[4-fluoro-2-(4-methyl-4H-1,2,4-triazol-3-yl)phenyl]-2-pyridyl}-5-{[(R)-3-methoxy-1-pyrrolidinyl]methyl}-1-cyclopropyl-2-oxo-1,2-dihydronicotinamide] | < 100 | 100 to 1000
20 | CO[C@@H](C)[C@H](C)NCc1cc(C(=O)Nc2cc(-c3ccc(F)cc3-c3nncn3C)cc(C3CC3)n2)c(=O)n(C2CC2)c1 [Example 23, N-{6-cyclopropyl-4-[4-fluoro-2-(4-methyl-4H-1,2,4-triazol-3-yl)phenyl]-2-pyridyl}-5-{[(1S,2S)-2-methoxy-1-methylpropylamino]methyl}-1-cyclopropyl-2-oxo-1,2-dihydronicotinamide] | < 100 | < 100
